Measurements published in patent publication US20100075926A1, “ACTIVATION OF HISTONE DEACETYLASE 1 (HDAC1) PROTECTS AGAINST DNA DAMAGE AND INCREASES NEURONAL SURVIVAL” (priority 2008, published 2010).

Key:
Format in all cases: biochemical
[1] = biological target: T1, recombinant human HDAC1 (Homo sapiens, UniProt Q13547); assay: 384-well fluorometric deacetylase assay (substrate MAZ1600), HDAC1; set-up: % HDAC1 Activ: unit not given here; settings: for Classification: class assigned from the HDAC1, 2, 3, 5 panel; for HDAC1 slope: rate of reaction (slope), DMSO control 37787; for % HDAC1 Activ: slope normalized to mean of DMSO control (DMSO = 1.00)
T1 construct: purchased BPS Biosciences
T1 sequence (Q13547 whole entry): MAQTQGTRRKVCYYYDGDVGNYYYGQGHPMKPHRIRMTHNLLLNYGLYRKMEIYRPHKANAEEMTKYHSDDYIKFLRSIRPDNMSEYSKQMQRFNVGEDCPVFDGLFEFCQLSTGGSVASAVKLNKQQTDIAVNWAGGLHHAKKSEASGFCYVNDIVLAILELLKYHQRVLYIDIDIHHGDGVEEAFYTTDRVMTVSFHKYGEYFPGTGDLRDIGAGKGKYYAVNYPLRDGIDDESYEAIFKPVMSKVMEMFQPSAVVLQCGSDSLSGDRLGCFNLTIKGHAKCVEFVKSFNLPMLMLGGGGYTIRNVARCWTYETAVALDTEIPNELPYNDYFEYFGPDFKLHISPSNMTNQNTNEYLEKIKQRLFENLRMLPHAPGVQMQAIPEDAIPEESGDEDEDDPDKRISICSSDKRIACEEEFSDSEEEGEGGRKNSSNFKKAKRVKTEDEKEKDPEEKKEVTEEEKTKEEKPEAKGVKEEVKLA
Excerpt: (§1) TCEP was omitted from the assay buffer. Rates of reactions (slopes) were normalized to the mean of DMSO control treatments for each enzyme on each plate. Bradner J E, West N, Grachan M L, Greenberg E F, Haggarty S J, Mazitsheck. Nature Chemical Biology (under review). Bradner J E, West N, Grachan M L, Greenberg E F, Haggarty S J, Mazitsheck. Chemical Phylogenetics of Histone Deacetylases. […] Z

[2] = biological target: T2, recombinant human HDAC5 (Homo sapiens, UniProt Q9UQL6); assay: 384-well fluorometric deacetylase assay (substrate MAZ1675), HDAC5; settings: for HDAC5 slope: rate of reaction (slope), DMSO control 50401; for % HDAC5 activ: slope normalized to mean of DMSO control (DMSO = 1.00)
T2 construct: purchased BPS Biosciences
T2 sequence (Q9UQL6 whole entry): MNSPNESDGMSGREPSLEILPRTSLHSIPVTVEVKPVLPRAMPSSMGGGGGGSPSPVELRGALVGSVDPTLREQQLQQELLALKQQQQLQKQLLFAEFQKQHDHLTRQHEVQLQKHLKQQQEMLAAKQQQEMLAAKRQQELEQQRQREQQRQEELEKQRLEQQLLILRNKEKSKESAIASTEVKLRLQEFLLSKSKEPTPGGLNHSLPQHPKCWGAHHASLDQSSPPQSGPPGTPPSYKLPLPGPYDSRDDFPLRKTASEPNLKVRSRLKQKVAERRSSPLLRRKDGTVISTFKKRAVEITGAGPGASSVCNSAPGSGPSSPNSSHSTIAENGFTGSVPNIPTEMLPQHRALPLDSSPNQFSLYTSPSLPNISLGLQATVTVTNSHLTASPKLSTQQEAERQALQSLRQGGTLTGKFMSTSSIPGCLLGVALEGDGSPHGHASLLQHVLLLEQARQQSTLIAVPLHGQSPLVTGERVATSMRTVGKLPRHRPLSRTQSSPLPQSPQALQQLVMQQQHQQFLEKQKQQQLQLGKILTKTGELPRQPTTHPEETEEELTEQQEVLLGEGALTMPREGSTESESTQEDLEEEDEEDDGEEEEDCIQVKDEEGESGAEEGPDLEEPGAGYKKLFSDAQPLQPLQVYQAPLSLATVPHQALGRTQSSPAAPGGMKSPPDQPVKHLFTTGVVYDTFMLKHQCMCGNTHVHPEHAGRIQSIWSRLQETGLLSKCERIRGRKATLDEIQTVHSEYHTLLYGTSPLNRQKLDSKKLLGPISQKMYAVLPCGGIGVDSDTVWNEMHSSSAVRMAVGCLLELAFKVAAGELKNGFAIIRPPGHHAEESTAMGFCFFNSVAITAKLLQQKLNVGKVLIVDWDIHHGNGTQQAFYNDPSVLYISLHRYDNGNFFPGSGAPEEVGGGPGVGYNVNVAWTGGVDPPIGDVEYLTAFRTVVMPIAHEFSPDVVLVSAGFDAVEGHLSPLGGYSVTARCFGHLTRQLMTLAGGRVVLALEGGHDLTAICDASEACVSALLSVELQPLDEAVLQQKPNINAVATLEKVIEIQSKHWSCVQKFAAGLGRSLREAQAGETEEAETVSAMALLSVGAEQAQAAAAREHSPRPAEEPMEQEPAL
Excerpt: as §1

[3] = biological target: T3, recombinant human HDAC2 (Homo sapiens, UniProt Q92769); assay: 384-well fluorometric deacetylase assay (substrate MAZ1600), HDAC2; settings: for HDAC2 slope: rate of reaction (slope), DMSO control 40839; for % HDAC2 Activ: slope normalized to mean of DMSO control (DMSO = 1.00)
T3 construct: purchased BPS Biosciences
T3 sequence (Q92769 whole entry): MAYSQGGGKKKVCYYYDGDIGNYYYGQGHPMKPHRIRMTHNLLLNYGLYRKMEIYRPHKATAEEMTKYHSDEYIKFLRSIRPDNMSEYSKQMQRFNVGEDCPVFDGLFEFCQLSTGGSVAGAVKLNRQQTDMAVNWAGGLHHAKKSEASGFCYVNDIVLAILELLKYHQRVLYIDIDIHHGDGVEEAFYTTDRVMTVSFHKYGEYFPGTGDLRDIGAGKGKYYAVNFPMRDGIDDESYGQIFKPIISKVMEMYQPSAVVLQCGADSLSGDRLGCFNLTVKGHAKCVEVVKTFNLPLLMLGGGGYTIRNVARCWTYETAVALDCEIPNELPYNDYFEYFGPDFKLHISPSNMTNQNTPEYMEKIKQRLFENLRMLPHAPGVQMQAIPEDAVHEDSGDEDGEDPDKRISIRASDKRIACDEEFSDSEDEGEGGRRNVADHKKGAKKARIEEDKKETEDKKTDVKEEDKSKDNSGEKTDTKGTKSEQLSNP
Excerpt: as §1

[4] = biological target: T4, recombinant human HDAC3 (Homo sapiens, UniProt O15379); assay: 384-well fluorometric deacetylase assay (substrate MAZ1600), HDAC3; settings: for HDAC3 slope: rate of reaction (slope), DMSO control 54625; for % HDAC3 Activ: slope normalized to mean of DMSO control (DMSO = 1.00)
T4 construct: purchased BPS Biosciences
T4 sequence (O15379 whole entry): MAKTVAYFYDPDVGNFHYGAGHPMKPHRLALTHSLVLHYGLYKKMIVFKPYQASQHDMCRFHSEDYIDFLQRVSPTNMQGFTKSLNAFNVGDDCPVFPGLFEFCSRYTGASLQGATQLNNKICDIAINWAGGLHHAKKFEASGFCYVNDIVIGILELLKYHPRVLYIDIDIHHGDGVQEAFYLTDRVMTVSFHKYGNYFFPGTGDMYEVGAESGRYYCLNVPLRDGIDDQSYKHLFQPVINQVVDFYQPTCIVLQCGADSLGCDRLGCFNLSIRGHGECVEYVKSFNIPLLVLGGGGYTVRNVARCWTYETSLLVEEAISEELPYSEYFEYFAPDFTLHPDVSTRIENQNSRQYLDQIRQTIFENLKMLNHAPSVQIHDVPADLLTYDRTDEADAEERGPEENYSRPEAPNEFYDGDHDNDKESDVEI
T4 sequence (Q9Y618 395-489 partner limits assumed): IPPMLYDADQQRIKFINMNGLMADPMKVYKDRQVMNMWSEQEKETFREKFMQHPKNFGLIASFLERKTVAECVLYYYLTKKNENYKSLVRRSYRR
Excerpt: as §1

Compound	Classification [1]	HDAC1 slope [1]	HDAC5 slope [2]	HDAC2 slope [3]	HDAC3 slope [4]	% HDAC1 Activ [1]	% HDAC5 activ [2] [%]	% HDAC2 Activ [3]	% HDAC3 Activ [4]
NC(C(=O)O)c1nnn[nH]1 (racemic)	HDAC1 activator	40343	45589	42215	56930	–	–	–	–
NCC(CC(=O)O)c1ccc(Cl)s1 (racemic) [(+-)-4-amino-3-(5-chloro-2-thienyl)-butanoic acid]	HDAC1 activator	40239	50272	40008	54049	1.06	100	0.98 fraction of DMSO control	0.99 fraction of DMSO control
CC1(C)S[C@@H]2[C@H](NC(=O)[C@H](N)c3ccccc3)C(=O)N2[C@H]1C(=O)O [Ampicillin trihydrate]	HDAC1 & HDAC3 activator	40160	46606	43966	56660	–	–	–	–
O=C(O)[C@H]1C[C@@H](CP(=O)(O)O)CCN1 [CGS 19755]	HDAC1 activator	41839	48280	42301	57057	–	–	–	–
N[C@H](CC(=O)O)C(=O)O [D- ASPARTIC ACID, D-aspartic acid]	HDAC1 activator	40655	45291	42016	54899	–	–	–	–
CC(O)(P(=O)([O-])O)P(=O)([O-])O.[Na+].[Na+] [Etidronic acid, disodium salt]	HDAC1 & HDAC3 activator	40241	51711	41315	58286	–	–	–	–
O=C(O)[C@@H]1C[C@H]2C[C@@H](CP(=O)(O)O)CC[C@H]2CN1 [LY 235959]	HDAC1 & HDAC3 activator	40893	43688	42923	65435	–	–	–	–
C[C@H](N)[C@H](O)c1ccc(O)c(O)c1 [Levonordefrin]	HDAC1 & HDAC3 activator	40405	47752	40182	62457	–	–	–	–
C[C@](N)(Cc1ccc(O)c(O)c1)C(=O)O [Methyldopa (L,-)]	HDAC1 & HDAC3 activator	40553	56516	42153	60891	–	–	–	–
CCN(CC)CCc1nc(-c2ccccc2)no1.O=C(O)CC(O)(CC(=O)O)C(=O)O [Oxalamine citrate salt]	HDAC1 & HDAC3 activator	40700	47216	41269	60752	–	–	–	–
COc1cc([C@@H]2c3cc4c(cc3[C@H](O)[C@H]3COC(=O)[C@H]23)OCO4)cc(OC)c1OC [Podophyllo toxin, podophyllotoxin]	HDAC1 activator	40983	54734	39197	53416	–	–	–	–
Oc1cc2c(c(Cl)c1O)CCNC[C@@H]2c1ccccc1 [R(+)-SKF- 81297]	HDAC1 & HDAC3 activator	40201	48294	42197	66733	–	–	–	–
CP(=O)(O)CCCN [SK&F 97541]	HDAC1 activator	40213	49250	39881	54915	–	–	–	–
phenazopyridine hydrochloride [Phenazo- pyridine hydrochloride]	HDAC1 activator	40631	54125	42470	56613	1.08	107	1.04 fraction of DMSO control	1.04 fraction of DMSO control
